Literature values in article PMC11478287, “Design and Synthesis of Pyridyl and 2-Hydroxyphenyl Chalcones with Antitubercular Activity” (Molecules, 2024).

Test system: PtpA
Parameters: method as in PMID 18930396
Conditions: cited from earlier work

COc1cc(C(=O)/C=C/c2ccc3c(c2)OCO3)cc(OC)c1OC [Compound 2]
PtpA inhibition activity (in words): very low PtpA inhibition activity
